Data published in BindingDB's records for doi:10.1016/s0960-894x(03)00129-x (Wyeth Research, 2003).

Target: T1, Progesterone receptor (Rattus norvegicus, UniProt Q63449)
T1 sequence (Q63449 whole entry): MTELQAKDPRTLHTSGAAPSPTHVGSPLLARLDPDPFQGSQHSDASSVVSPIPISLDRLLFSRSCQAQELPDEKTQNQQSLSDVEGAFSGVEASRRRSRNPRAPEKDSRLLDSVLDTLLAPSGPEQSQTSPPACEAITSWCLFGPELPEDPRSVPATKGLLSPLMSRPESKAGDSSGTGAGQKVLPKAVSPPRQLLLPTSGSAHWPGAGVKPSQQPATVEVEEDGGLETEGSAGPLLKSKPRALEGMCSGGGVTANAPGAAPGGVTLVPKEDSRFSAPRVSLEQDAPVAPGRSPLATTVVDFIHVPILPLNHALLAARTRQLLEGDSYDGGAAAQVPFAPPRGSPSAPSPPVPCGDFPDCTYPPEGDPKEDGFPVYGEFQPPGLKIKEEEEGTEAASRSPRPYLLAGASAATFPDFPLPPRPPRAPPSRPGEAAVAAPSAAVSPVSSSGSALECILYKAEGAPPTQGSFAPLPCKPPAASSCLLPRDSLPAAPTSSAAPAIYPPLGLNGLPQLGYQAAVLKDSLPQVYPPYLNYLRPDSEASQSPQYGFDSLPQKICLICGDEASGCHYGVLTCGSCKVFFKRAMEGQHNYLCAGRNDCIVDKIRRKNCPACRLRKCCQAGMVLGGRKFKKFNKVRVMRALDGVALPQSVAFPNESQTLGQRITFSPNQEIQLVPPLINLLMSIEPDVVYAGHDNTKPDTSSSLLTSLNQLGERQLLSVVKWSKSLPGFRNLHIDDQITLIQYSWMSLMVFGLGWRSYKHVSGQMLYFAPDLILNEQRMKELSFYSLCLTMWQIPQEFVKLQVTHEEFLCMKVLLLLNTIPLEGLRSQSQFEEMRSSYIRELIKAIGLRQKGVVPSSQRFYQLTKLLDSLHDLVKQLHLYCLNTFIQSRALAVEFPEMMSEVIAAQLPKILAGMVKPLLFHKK
Assay: Inhibitory progestational activity on oral administration in uterine C3 model

Row | Compound | IC50 [nM]
1 | S=C1Nc2ccc(-c3cccc(Cl)c3)cc2C12CCCCC2 | 1120
2 | CC(=O)O[C@]1(C(C)=O)CC[C@H]2[C@@H]3C[C@H](C)C4=CC(=O)CC[C@]4(C)[C@H]3CC[C@@]21C [17-Acetoxy-6alpha-methylprogesterone] | 67.3
3 | N#Cc1cc(F)cc(-c2ccc3c(c2)C2(CCCCC2)C(S)=N3)c1 [3-fluoro-5-(2'-thioxo-1',2'-dihydrospiro[cyclohexane-1,3'-indol]-5'-yl)benzonitrile] | 7.43

More lines, now with the values ahead:

Row | IC50 [nM] | Compound
4 | 942 | N#Cc1cccc(-c2ccc3c(c2)C2(CCCCC2)C(=S)N3)c1
5 | 92.5 | N#Cc1ccc(-c2ccc3c(c2)C2(CCCCC2)C(=S)N3)s1
